Measurements: ChEMBL document CHEMBL1150641, “Bryoanthrathiophene, a new antiangiogenic constituent from the bryozoan Watersipora subtorquata (d'Orbigny, 1852)” (J Nat Prod, 2002)

Columns and labels:
[1] = Antiangiogenic activity against BAEC assessed as inhibition of bFGF-induced cell proliferation after 3 days by MTT assay; assay type: functional, Bos taurus
[2] = Antiangiogenic activity against BAEC assessed as inhibition of bFGF-induced cell proliferation in presence of 10% fetal bovine serum after 3 days by MTT assay; assay type: functional, Bos taurus
BAEC = assay: Reduction of tube formation in bFGF-induced BAEC at 20 nM by Matrigel based tube formation assay; assay type: functional, cell-based; details: Bos taurus, TDE = time-dependent effect

Row | SMILES | IC50 [1] [µM] | IC50 [2] [µM] | Activity (BAEC)
1 | COC(=O)c1sc2ccc(O)c3c2c1-c1cccc(O)c1C3=O | 2.2 | 25.8 | –
2 | Cc1sc2ccc(O)c3c2c1-c1cccc(O)c1C3=O [BRYOANTHRATHIOPHENE] | 0.005 | 0.22 | tde
3 | O=C1c2cccc(O)c2C(=O)c2c(O)cccc21 [DANTHRON] | 5.7 | 20.1 | –
